Assay results: patent US20200077655A1, “Use of an Acyclic Picolinamide Compound as a Fungicide for Control of Phytopathogenic Fungi in Orchard, Vineyard and Plantation Crops” (Dow AgroSciences LLC, priority 2017, published 2020)

How the values were obtained:
[1] = tested on: Cladosporium caryigenum (CLADCA); assay: Field assessment of two trials for pecan nut scab; format: in vivo
Description: A fungicidal treatment containing Compound I, applied in an SC formulation (MSO built-in) and tank mixed with an adjuvant (Agnique BP-420, 50% w/w at 0.2% v/v or Adsee C80W 80%), was sprayed on pecan trees (CYAIL, Desirable variety) from pre-flowering up to nut hardening at rates of 60, 120, 150, and 180 g ai/ha. The experimental plots were run with natural infestation. The treatment was part of an experimental trial designed as a randomized complete block (RCB) with four replications and a plot of approximately 40×40 ft, respectively. In one test, compound I was applied in 9 applications at water volume of 94-115 gallons per acre (gal/acre), using an Airblast sprayer (Hollowcone solid disc D10/45 nozzles) and pressurized at 46-54 psi. In the second test, compound I was applied in 8 applications at water volume of […] sprayer (solid stream nozzle) and pressurized at 300 psi. Both trials targeted 14 day intervals for applications.
Disease evaluations were made as % incidence and % severity nuts in one test, 3 evaluations each, 9 applications, and as % incidence nuts and % severity leaves in the second test, 2 and 3 evaluations, respectively, 8 applications. Area under the disease progress curve (AUDPC) was calculated for each plot using the sets of recorded severity and incidence data. Relative AUDPC (% control based on AUDPC) was calculated as percent of the untreated control.

[2] = tested on: Stigmina carpophila (STIGCA); assay: Field assessment of two trials for shot hole in almond (AUDPC); format: in vivo; settings: almond leaf incidence
Description: A fungicidal treatment containing Compound I, applied in an SC formulation (MSO built-in) and tank mixed with an adjuvant (Agnique BP-420, 50% w/w at 0.2% v/v or Adsee C80W 80%), was sprayed on almond trees (PRNDU, Winters or Carmel varieties) at growth stage BBCH71 and 72 at rates of 60, 120, 150, and 180 g ai/ha in two trials. The experimental plots were run with natural infestation. The treatments were part of experimental trials designed as a randomized complete block (RCB) with three replications and a plot of approximately 14×20 ft, both trials. Compound I was applied at water volume of 100 gal/acre, using a Mistblower sprayer (Orifice nozzle 0.125 setting), both trials.
Percent Leaf incidence (calculated from the number of visual diseased leaves per 30 (Winters) or 50 (Carmel) leaves per tree on whole plot) was assessed three or four times during the trial. Area under the disease progress curve (AUDPC) was calculated for each plot using the sets of recorded leaf incidence data. Relative percent control was calculated from the AUDPC as percent of the untreated control using Abbotts.

[3] = 60 g ai/ha, Agnique BP420, 240 mL/ha
[4] = 120 g ai/ha, Agnique BP420, 480 mL/ha
[5] = 150 g ai/ha, Agnique BP420, 600 mL/ha
[6] = 180 g ai/ha, Agnique BP420, 720 mL/ha

SMILES: COc1ccnc(C(=O)N[C@@H](C)C(=O)O[C@@H](C)C(c2ccc(F)cc2)c2ccc(F)cc2)c1OC(C)=O [Compound I, (S)-1,1-bis(4-fluorophenyl)propan-2-yl (3-acetoxy-4-methoxypicolinoyl)-L-alaninate]
- Calc Percent Control of CLADCA (AUDPC) [1, 3]: 25.1%
- Calc Percent Control of CLADCA (AUDPC) ([1]; 60 g ai/ha, MSO, 120 g ai/ha): 29.8%
- Calc Percent Control of CLADCA (AUDPC) ([1]; 120 g ai/ha, Adsee C80W 80%, 300 g ai/ha): 21.9%
- Calc Percent Control of CLADCA (AUDPC) [1, 4]: 28.8%
- Calc Percent Control of CLADCA (AUDPC) ([1]; 120 g ai/ha, MSO, 240 g ai/ha): 30.1%
- Calc Percent Control of CLADCA (AUDPC) [1, 5]: 35.0%
- Calc Percent Control of CLADCA (AUDPC) ([1]; 150 g ai/ha, MSO, 300 g ai/ha): 29.8%
- Calc Percent Control of CLADCA (AUDPC) [1, 6]: 32.5%
- Calc Percent Control of CLADCA (AUDPC) ([1]; 180 g ai/ha, MSO, 360 g ai/ha): 53.0%
- Calculated Percent Control (AUDPC) of STIGCA [2, 3]: 45.2%
- Calculated Percent Control (AUDPC) of STIGCA ([2]; 60 g ai/ha, MSO, 120 g ai/ha): 47.9%
- Calculated Percent Control (AUDPC) of STIGCA ([2]; 120 g ai/ha, Adsee C80W, 300 g ai/ha): 44.6%
- Calculated Percent Control (AUDPC) of STIGCA [2, 4]: 49%
- Calculated Percent Control (AUDPC) of STIGCA ([2]; 120 g ai/ha, MSO, 240 g ai/ha): 48.3%
- Calculated Percent Control (AUDPC) of STIGCA [2, 5]: 41.1%
- Calculated Percent Control (AUDPC) of STIGCA ([2]; 150 g ai/ha, MSO, 300 g ai/ha): 45.1%
- Calculated Percent Control (AUDPC) of STIGCA [2, 6]: 30.1%
- Calculated Percent Control (AUDPC) of STIGCA ([2]; 180 g ai/ha, MSO, 360 g ai/ha): 49.0%
